Results reported in patent US7063948B1, “Uses of antibodies against AChE and peptides thereof” (Yissum Research Development Company of the Hebrew …, priority 1999, dated 2006).

Assay: Evans Blue dye penetration into brain after confined swim stress
Format: in vivo
Settings: FIG. 6A
Source text: The above results were confirmed in animal experiments.

Cc1cc(-c2ccc(/N=N/c3ccc4c(S(=O)(=O)O)cc(S(=O)(=O)O)c(N)c4c3O)c(C)c2)ccc1/N=N/c1ccc2c(S(=O)(=O)O)cc(S(=O)(=O)O)c(N)c2c1O [Evans Blue]
dye penetration into the brain (nonstressed control mice): very low levels | dye penetration into the brain (stressed mice): a large amount of the dye penetrates the brain
